For the assay, the target named is T1, DOHH (Homo sapiens, UniProt Q9BU89).
T1 construct: pelB leader (N); host or cells: E. coli BL21 (DE3)
T1 sequence (Q9BU89 1-302): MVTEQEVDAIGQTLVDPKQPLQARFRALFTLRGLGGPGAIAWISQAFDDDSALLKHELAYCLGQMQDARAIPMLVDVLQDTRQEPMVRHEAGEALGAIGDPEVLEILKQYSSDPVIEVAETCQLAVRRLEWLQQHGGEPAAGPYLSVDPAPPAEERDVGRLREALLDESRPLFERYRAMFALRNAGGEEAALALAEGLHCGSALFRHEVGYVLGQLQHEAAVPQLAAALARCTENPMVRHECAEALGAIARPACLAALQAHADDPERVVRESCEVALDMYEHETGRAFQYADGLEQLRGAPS
The experiment in a line: Hyp'Assay, substance added after the deoxyhypusination reaction (DOHH step). Type of assay: biochemical. Particulars: 5 μM spermidine. How it is done: We then tested the ability of DOHH inhibitors to inhibit eIF5A hypusination using the Hyp’Assay. During the Hyp’Assay, DOHH inhibitors were added after the deoxyhypusination reaction.
To address this issue, we compared the ability of GC7 to inhibit DHPS or DOHH by adding GC7 during the first step of the Hyp’Assay; when DHPS mediates the deoxyhypusination reaction (Fig 2A), or only during the second step, when DOHH hydroxylate deoxyhypusinated eIF5A. […] When finding new hypusination inhibitors adding them during the first or the second step of the Hyp’Assay will allow us to determine if the inhibition affects DHPS or DOHH. Another way to discriminate between DHPS or DOHH inhibitors would be to use Hpu98, an antibody that recognized both hypusinated and deoxyhypusinated eIF5A, instead of Hpu24, which is specific for hypusinated eIF5A [18]. […] We performed a new Hyp’Assay by omitting DOHH in the reaction mix and using the Hpu98 antibody. First, we performed a dose response experiment with spermidine at pH: 8.0 and 9.0 (Fig 3E). […] We also tested the ability of GC7 (Fig 3F) and CPX or EDTA (Fig 3G) to inhibit DHPS.
[…] Then 10 μL containing 1 μg of DOHH with 10 μM Fe^2+ (H8FeN2O8S2^. 6H2O) were added. After 1 h proteins were analyzed by Western Blot using antibodies toward DHPS, DOHH, Hypusine, and eIF5A.
The cell-free reaction described in 4.4 is performed in triplicates in a 96-wells plate (MaxiSorp, ThermoFisher) in the presence of 3 μg of eIF5A, 2 μg of DHPS, and 2 μg of DOHH by well. The reaction product, hypusinated eIF5A, is adsorbed onto the plate overnight at 4°C. The plate is washed (100 μL/well) thrice with PBS-T (PBS– 0.05% Tween20), then saturated with 1% non-fat dry milk in PBS-T for 2 h at room temperature. The plate is washed thrice with PBS-T and incubated overnight at 4°C with the anti-hypusine antibody (1:2000 in saturation buffer, 50 μL/well). The next day and after 5 washes with PBS-T, HRP-coupled anti-rabbit secondary antibody diluted 1:5000 in saturation buffer (50 μL/well) is added for 2 h at room temperature.

Consider `N=C(N)NCCCCCCCN` [GC7, N1-guanyl-1,7-diaminoheptane], for which the “Relative hypusination of eIF5A, Mean (quantification from Figure 3D)” value (GC7 added during the DOHH step, CTRL 100,0) is reported as 99,58 a.u. Where the note is “added only during the hydroxylation step (DOHH)”, the effect on hypusination entry was “no inhibition was observed”.

For the origin of these results see article PMC11819603, “Development of a reliable, sensitive, and convenient assay for the discovery of new eIF5A hypusination inhibitors” (PLOS ONE, 2025).
